From patent US20240197739A1 (Sanofi, priority 2021, published 2024)
Like-named read-outs stand apart in the source and are kept apart here.

Test system: subcutaneous MCF7-Y537S human breast cancer cell line xenograft
Settings: for Tumor volume changes from baseline: Median / Regressions Complete / Regressions Partial / Median % of regressions on day 22 / Unscheduled death (Day of death): PO; for Tumor volume changes from baseline: Median: n = 7; for Anti-tumor effect on tumor growth (statistical significance versus control): two-way ANOVA, contrast analysis; for Regressions Complete: animals with complete regression / group of 7; for Regressions Complete / Regressions Partial / Unscheduled death (Day of death): 22 days; for Regressions Partial: animals with partial regression / group of 7; for ΔT/ΔC in % at day 22: ratio of median tumor volume changes from baseline, treated vs control; for ΔT/ΔC in % at day 22 / Median % of regressions on day 22 / Biological Interpretation: day 22; for Biological Interpretation: based on ΔT/ΔC and statistical analysis; for Unscheduled death (Day of death): deaths / group of 7
Procedure: Anti-tumor efficacy was evaluated by tumor volume measurement.
Female BALB/c nude mice were obtained from Shanghai Sino-British SIPPR/BK Laboratory Animal Co., LTD (Shanghai, CHINA). Animals were allowed to acclimate for at least four days before the study enrollment. Mice were 6 to 8 weeks old and weighed between 18 and 24 grams at the beginning of the treatments. These animals were housed under conditions outlined in the guidelines approved by the Institutional Animal Care and Use Committee (IACUC) of WuXi AppTec following the guidance of the Association for Assessment and Accreditation of Laboratory Animal Care (AAALAC).
Parental MCF7 cells were obtained from the American Type Culture Collection (ATCC® HTB-22™). MCF7-Y537S (ESR1) cell line was MCF7 cells expressing the ER. Y537S variant that was generated by Sanofi Biology Discovery Group. Y537S mutation was introduced in ESR1 construct (GenBank NM_000125.3) by site directed mutagenesis (Toy W. et al., Cancer Discovery, 2017, 7, 277-287). The construct was transfected in MCF7 cells, which were selected for their growth in absence of estradiol. MCF-Y537S is an ESR1 mutation that confers estrogen-independent activity to ERα(Estrogen Receptor alpha) and contributes to endocrine resistant disease (Robinson D.R. et al., Nat Genet., 2013, 45 (12), 1446-1451). The cells were grown in Eagle's Minimum Essential Medium (EMEM) supplemented with 10% fetal bovine serum (FBS), human Insulin, in 5% CO2 at 37° C. The cells were harvested in 0.25% Trypsin EDTA and washed by Phosphate Buffered Saline (PBS) and re-suspended in PBS with 75% Matrigel. The cells (20×10^6 cells/per mouse) were subcutaneously (SC) implanted into the right flank of female nude mice.
When the MCF7-Y537S tumors were established, the tumors were reserved as tumor stocks for fragment implantation. The tumors were serially propagated through fragment tissue transplantation subcutaneously. The fragment tumor tissues were subcutaneously implanted into the right flank of female nude mice. Twenty-eight mice were assigned in this experiment.
The animals required for experiment (plus extra) were pooled and implanted with MCF7-Y537S tumor fragment tissues. […] Animal body weight was assessed daily.
The dosages are expressed in mg/kg and based on daily body weight per animal. Vehicle treated animals were used as controls. Mice were checked daily for adverse clinical reactions. Individual mice were weighed daily until the end of the experiment. Mice would be euthanized when morbid or weight loss ≥20% was observed. Tumors were measured with a caliper twice weekly until final sacrifice. When a tumor size reached approximately 2000 mm^3 or when there are animal health issues (40% area of a tumor ulcerated), animals were euthanized, and date of death recorded. Solid tumor volumes were estimated from two-dimensional tumor measurements and calculated according to the following equation: […]
A dosage producing either 15% body weight loss during 3 consecutive days for an individual mouse, 20% body weight loss during 1 day, or 10% or more drug related deaths, was considered an excessively toxic dosage, unless under certain circumstances bodyweight loss or animal death can be considered non-drug related. […] Animal body weight included the tumor weight.
The primary efficacy end points include tumor volume changes from baseline summarized by the ratio of medians of tumor volume changes from baseline between the treated and control groups (ΔT/ΔC). Changes in tumor volume for each treated (T) and control (C) group were calculated for each animal on each day by subtracting the tumor volume on the day of first treatment (staging day) from the tumor volume on the specified observation day.

[1] = Day 4, amcenestrant 20 mg/kg BID, ribociclib 100 mg/kg QD
[2] = Day 8, amcenestrant 20 mg/kg BID, ribociclib 100 mg/kg QD
[3] = Day 11, amcenestrant 20 mg/kg BID, ribociclib 100 mg/kg QD
[4] = Day 15, amcenestrant 20 mg/kg BID, ribociclib 100 mg/kg QD
[5] = Day 22, amcenestrant 20 mg/kg BID, ribociclib 100 mg/kg QD
[6] = amcenestrant 20 mg/kg BID, ribociclib 100 mg/kg QD, PO for 22 days
[7] = amcenestrant 20 mg/kg BID, ribociclib 100 mg/kg QD
[8] = PO for 22 days, amcenestrant 20 mg/kg BID, ribociclib 100 mg/kg QD

Row | SMILES | Tumor volume changes from baseline: Median [1] [mm^3] | Tumor volume changes from baseline: Median [2] [mm^3] | Tumor volume changes from baseline: Median [3] [mm^3] | Tumor volume changes from baseline: Median [4] [mm^3] | Tumor volume changes from baseline: Median (Day 18, amcenestrant 20 mg/kg BID, ribociclib 100 mg/kg QD) [mm^3] | Tumor volume changes from baseline: Median [5] [mm^3] | Anti-tumor effect on tumor growth (statistical significance versus control) [6] | Regressions Complete [7] | Regressions Partial [7] | ΔT/ΔC in % at day 22 [8] [%] | Median % of regressions on day 22 [7] [%] | Biological Interpretation | Unscheduled death (Day of death) [7] | Body weight loss [6] | Tolerability [6]
1 | O=C(O)c1ccc2c(c1)CCCC(c1ccc(Cl)cc1Cl)=C2c1ccc(O[C@H]2CCN(CCCF)C2)cc1 [SAR439859, 6-(2,4-dichlorophenyl)-5-[4-[(3S)-1-(3-fluoropropyl)pyrrolidin-3-yl]oxyphenyl]-8,9-dihydro-7H-benzo[7]annulene-2-carboxylic acid] | 43.0 | 121.0 | 214.0 | 360.0 | 392.0 | 501.0 | no statistically significant anti-tumor effect | 0/7 | 0/7 | 47 | 0 | Inactive* | 0/7 |  | 
2 | CN(C)C(=O)c1cc2cnc(Nc3ccc(N4CCNCC4)cn3)nc2n1C1CCCC1.O=C(O)CCC(=O)O [ribociclib, 7-cyclopentyl-N,N-dimethyl-2-[[5-(1-piperazinyl)-2-pyridinyl]amino]-7H-pyrrolo[2,3-d]pyrimidine-6-carboxamide] | 44.0 | 103.0 | 183.0 | 292.0 |  | 423.0 | no statistically significant anti-tumor efficacy | 0/7 | 0/7 | 40 | 0 | Inactive* | 0/7 | no significant body weight loss | well-tolerated
